Measured values from patent publication US20220119493A1, “IL-7R-ALPHA BINDING COMPOUNDS” (MEDIKINE, INC., priority 2020, published 2022).

Tests used:
IL-7Rα = biological target: T1, IL-7Rα (Homo sapiens, UniProt P16871); test: Competitive binding ELISA bn407:NA-HRP; details: bn407:NA-HRP 10 nMf; SEQ ID NOS: 520-534 with two glycines (-GG-) on the carboxyl terminus
T1 construct: Fc; purchased ACRObiosystems, Inc. ILB-H5258

IL-7Rα subunit = biological target: T2, IL-7Rα subunit (Homo sapiens, UniProt P16871); test: Phage ELISA competition assay; details: read-out: IC50, binding to the unique binding site on the IL-7Rα subunit
T2 construct: Fc; purchased ACRObiosystems, Inc. ILB-H5258

CD4 and CD8 T-cells = test: Ki-67 proliferation assay in CD4 and CD8 T-cells; format: cell-based; details: human PBMCs, 3 days; hIL-7 comparator

T2 sequence (P16871 21-236): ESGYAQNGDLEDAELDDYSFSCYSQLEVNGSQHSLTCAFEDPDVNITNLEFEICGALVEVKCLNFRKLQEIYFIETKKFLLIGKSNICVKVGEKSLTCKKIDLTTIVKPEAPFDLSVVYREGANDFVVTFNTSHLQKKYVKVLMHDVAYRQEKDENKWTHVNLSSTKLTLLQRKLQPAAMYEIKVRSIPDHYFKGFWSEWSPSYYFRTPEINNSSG
T1 sequence (P16871 21-236): as above

Row | IC50 (IL-7Rα subunit) [µM] | Molecule | further results
1 |  | CC[C@H](C)[C@H](NC(=O)[C@H](CCCNC(=N)N)NC(=O)[C@H](Cc1c[nH]cn1)NC(=O)[C@@H](N)C(C)C)C(=O)N1CCC[C@H]1C(=O)N[C@@H](Cc1c[nH]c2ccccc12)C(=O)N[C@H]1CSSC[C@@H](C(=O)N[C@@H](C)C(=O)N[C@@H](Cc2c[nH]c3ccccc23)C(=O)N[C@@H](CC(C)C)C(=O)N[C@@H](CCCNC(=N)N)C(=O)N[C@@H](CCC(N)=O)C(=O)N[C@@H](CCSC)C(=O)NCC(=O)NCC(=O)O)NC(=O)[C@H](CCC(N)=O)NC(=O)[C@H](CC(C)C)NC(=O)CNC(=O)CNC(=O)[C@@H]2CCCN2C(=O)[C@H](CC(=O)O)NC(=O)[C@H](CC(C)C)NC(=O)[C@H]([C@@H](C)O)NC1=O [SEQ ID NO: 554, VHRIPWCTLDPGGLQCAWLRQMGG] | IC50 (IL-7Rα): 382 nM
2 | < 10 | CSCC[C@H](NC(=O)[C@@H](N)Cc1ccc(O)cc1)C(=O)N[C@@H](C)C(=O)N[C@H]1CSSC[C@@H](C(=O)N[C@@H](CCCNC(=N)N)C(=O)N[C@@H](CC(C)C)C(=O)N[C@@H](CO)C(=O)O)NC(=O)[C@H](CC(C)C)NC(=O)[C@H](CO)NC(=O)[C@H](CC(C)C)NC(=O)CNC(=O)[C@H](CO)NC(=O)[C@H](CO)NC1=O [compound 104] | 
3 | < 10 | CC[C@H](C)[C@H](NC(=O)[C@@H]1CSSC[C@H](NC(=O)[C@@H](N)CCC(N)=O)C(=O)N[C@@H](C(C)C)C(=O)N[C@@H](Cc2c[nH]cn2)C(=O)N[C@@H](Cc2c[nH]c3ccccc23)C(=O)N[C@@H](CC(=O)O)C(=O)N[C@@H](CC(C)C)C(=O)N[C@@H](CC(=O)O)C(=O)N[C@@H]([C@@H](C)O)C(=O)N[C@@H](CC(C)C)C(=O)N[C@@H](Cc2ccccc2)C(=O)NCC(=O)N1)C(=O)N[C@@H](CCCNC(=N)N)C(=O)N[C@@H](CCC(=O)O)C(=O)N[C@@H](CCC(N)=O)C(=O)N[C@@H](CC(C)C)C(=O)N[C@@H](CCC(=O)O)C(=O)N[C@@H](CC(C)C)C(=O)O [compound 146] | 
4 | < 10 | CC(C)C[C@@H]1NC(=O)[C@H](CO)NC(=O)CNC(=O)[C@@H]2CCCN2C(=O)[C@H](CC(=O)O)NC(=O)[C@H](CC(C)C)NC(=O)[C@H]([C@@H](C)O)NC(=O)[C@@H](NC(=O)[C@H](Cc2c[nH]c3ccccc23)NC(=O)[C@@H]2CCCN2C(=O)[C@@H](NC(=O)CNC(=O)CN)C(C)C)CSSC[C@@H](C(=O)N[C@@H](C)C(=O)N[C@@H](Cc2c[nH]c3ccccc23)C(=O)N[C@@H](Cc2ccccc2)C(=O)O)NC(=O)[C@H](CCC(N)=O)NC1=O [compound 458] | 
5 |  | hIL-7: human interleukin-7, the natural cytokine, comparator in the functional assays | EC50 (CD4 and CD8 T-cells): ~1 nM
